The test system of the first data set is rat cardiac allograft. Kind of data set: Protective effect of the compound (a) combined with FK506 on rat cardiac allograft. It counts as in vivo. The settings on record: single-drug group: FK506 0.32 mg/kg, daily gastric intubation for 14 days; Lewis donor to ACI recipient heterotopic cardiac transplantation. How it is done: Test 2: Protective Effect of the Compound (a) Combined with FK 506 on Rat Cardiac Allograft
Experiments were performed on male Lewis and ACI rats weighing 175-200 g. Rats were anesthetized with sodium pentobarbital (50 mg/kg, i.p.), and underwent allogeneic (Lewis donor to ACI recipient) heterotopic intra-abdominal cardiac transplantation. Experimental groups were divided into single-drug group and combined-drug group. Single-drug dose of FK506, which was prepared in a manner similar to that disclosed in EP-0184162, was 0.32 mg/kg. Combined-drug dose was FK506 (0.32 mg/kg)+the compound (a) (10 mg/kg). The grafted hearts were monitored by daily palpation where complete rejection was defined as the cessation of palpable contractile activity. Each drug was suspended in a solution of 0.5% methylcellulose, and administered by daily gastric intubation in a volume of 5 ml/kg of body weight for 14 days.
The combination of the compound (a) and an immunosuppressive agent (FK506) was examined to determine whether it could improve rat cardiac allograft survival.
In the case of `C=CC[C@@H]1/C=C(\C)C[C@H](C)C[C@H](OC)[C@H]2O[C@@](O)(C(=O)C(=O)N3CCCC[C@H]3C(=O)O[C@H](/C(C)=C/[C@@H]3CC[C@@H](O)[C@H](OC)C3)[C@H](C)[C@@H](O)CC1=O)[C@H](C)C[C@@H]2OC` [FK506], the “MST (day) (Median Survival Time)” value worked out at 10 days.

System in another data set: not given
Experiment: not given
Settings: not given
In turn, `Cc1nccn1-c1ccc(-c2cnc([C@H](Cc3ccccn3)N(C=O)c3cc4ccccc4o3)n2C)cc1` [Example 15, (1S)-(Benzo[b]furan-2-yl)-N-[1-[1-methyl-5-[4-(2-methylimidazol-1-yl)phenyl]imidazol-2-yl]-2-(2-pyridyl)ethyl]formamide] showed a melting point of 167 to 171 °C.
On to `Cn1c(-c2ccc(-n3ccnc3)cc2)cnc1[C@H](Cc1ccccn1)N(C=O)c1cc2ccc(Cl)cc2o1` [Example 11, (1S)-(6-Chlorobenzo[b]furan-2-yl)-N-[1-[5-[4-(1-imidazolyl)-phenyl]-1-methylimidazol-2-yl]-2-(2-pyridyl)ethyl]formamide], for which the melting point was in the range of 165 to 169 °C.
`Cn1c(-c2ccc(-n3cnc4ccccc43)cc2)cnc1[C@H](Cc1ccccn1)N(C=O)c1cc2ccccc2o1` [Example 32, (1S)-N-[1-[5-[4-(1-Benzimidazolyl)phenyl]-1-methylimidazol-2-yl]-2-(2-pyridyl)ethyl](benzo[b]furan-2-yl)formamide] returned a melting point of 152 to 155 °C.
As for `Cn1c(-c2ccc(-c3cncs3)cc2)cnc1[C@H](Cc1ccccn1)N(C=O)c1cc2cc(Cl)ccc2o1` [Example 38, (1S)-(5-Chlorobenzo[b]furan-2-yl)-N-[1-[1-methyl-5-[4-(5-thiazolyl)phenyl]imidazol-2-yl]-2-(2-pyridyl)ethyl]formamide], the melting point is 165 to 167 °C.
Turning to `Cn1c(-c2ccc(N3CCOCC3)cc2)cnc1[C@H](Cc1ccccn1)N(C=O)c1cc2cc(Br)ccc2o1` [Example 2, (1S)-(5-Bromobenzo[b]furan-2-yl)-N-[1-[1-methyl-5-(4-morpholinophenyl)imidazol-2-yl]-2-(2-pyridyl)ethyl]formamide], the melting point is 173 to 174 °C.
Compound `Cn1c(-c2ccc(-c3ccccc3)cc2)cnc1[C@H](Cc1ccccn1)N(C=O)c1cc2cc(Br)ccc2o1` [Compound (b), (1S)-N-[1-[5-(4-biphenylyl)-1-methylimidazol-2-yl]-2-(2-pyridyl)ethyl](5-bromobenzo[b]furan-2-yl)formamide] returned a melting point of 180.5 to 181.5 °C.
The same measure, in the same setting: as for `Cn1c(-c2ccc([N+](=O)[O-])cc2)cnc1[C@H](Cc1ccccn1)N(C=O)c1cc2ccccc2o1` [Example 64, (1S)-(Benzo[b]furan-2-yl)-N-[1-[1-methyl-5-(4-nitrophenyl)imidazol-2-yl]-2-(2-pyridyl)ethyl]formamide], the figure is 103 to 104 °C.
Compound `CCCn1c(-c2ccc(-n3ccnc3)cc2)cnc1[C@H](Cc1ccccn1)N(C=O)c1cc2cc(C(F)(F)F)ccc2o1` [Example 30, (1S)-N-[1-[5-[4-(1-Imidazolyl)phenyl]-1-propylimidazol-2-yl]-2-(2-pyridyl)ethyl][5-(trifluoromethyl)benzo[b]furan-2-yl]formamide] had a melting point of 92 to 98 °C.
Same read-out and setting: as for `COc1ccc2oc(N(C=O)[C@@H](Cc3ccccn3)c3ncc(-c4ccc([N+](=O)[O-])cc4)n3C)cc2c1` [Compound (f), (1S)-(5-methoxybenzo[b]furan-2-yl)-N-[1-[1-methyl-5-(4-nitrophenyl)imidazol-2-yl]-2-(2-pyridyl)ethyl]formamide], the figure is 210 to 211 °C; as for `CCCn1c(-c2ccc(-n3ccnc3)cc2)cnc1[C@H](Cc1ccccn1)N(C=O)c1cc2cc(Br)ccc2o1` [Example 44, (1S)-(5-Bromobenzo[b]furan-2-yl)-N-[1-[5-[4-(1-imidazolyl)phenyl]-1-propylimidazol-2-yl]-2-(2-pyridyl)ethyl]formamide], 93 to 99 °C; as for `CCn1c(-c2ccc(-n3ccnc3)cc2)cnc1[C@H](Cc1ccncc1)N(C=O)c1cc2ccccc2[nH]1` [Compound (e), (1S)-N-[1-[1-ethyl-5-[4-(1-imidazolyl)phenyl]imidazol-2-yl]-2-(4-pyridyl)ethyl](indol-2-yl)formamide], 255 to 260 °C (dec.).
On to `Cn1c(-c2ccc(-c3cccnc3)cc2)cnc1[C@H](Cc1ccccn1)N(C=O)c1cc2cc(Cl)ccc2o1` [Example 34, (1S)-(5-Chlorobenzo[b]furan-2-yl)-N-[1-[1-methyl-5-[4-(3-pyridyl)-phenyl]imidazol-2-yl]-2-(2-pyridyl)ethyl]formamide], for which the melting point lay within 158 to 160 °C.

Values taken from patent publication US20020132809A1, “Heterocyclic carboxamide derivatives as inhibitors of nitric oxide production” (Fujisawa Pharmaceutical Co. Ltd., priority 1998, published 2002).
